Laboratory results as given in ChEMBL document CHEMBL1131112, “Matrix metalloproteinase inhibitors: a structure-activity study” (J Med Chem, 1998).

molecular target: 72 kDa type IV collagenase (Homo sapiens, UniProt P08253)
Sequence (P08253 whole entry): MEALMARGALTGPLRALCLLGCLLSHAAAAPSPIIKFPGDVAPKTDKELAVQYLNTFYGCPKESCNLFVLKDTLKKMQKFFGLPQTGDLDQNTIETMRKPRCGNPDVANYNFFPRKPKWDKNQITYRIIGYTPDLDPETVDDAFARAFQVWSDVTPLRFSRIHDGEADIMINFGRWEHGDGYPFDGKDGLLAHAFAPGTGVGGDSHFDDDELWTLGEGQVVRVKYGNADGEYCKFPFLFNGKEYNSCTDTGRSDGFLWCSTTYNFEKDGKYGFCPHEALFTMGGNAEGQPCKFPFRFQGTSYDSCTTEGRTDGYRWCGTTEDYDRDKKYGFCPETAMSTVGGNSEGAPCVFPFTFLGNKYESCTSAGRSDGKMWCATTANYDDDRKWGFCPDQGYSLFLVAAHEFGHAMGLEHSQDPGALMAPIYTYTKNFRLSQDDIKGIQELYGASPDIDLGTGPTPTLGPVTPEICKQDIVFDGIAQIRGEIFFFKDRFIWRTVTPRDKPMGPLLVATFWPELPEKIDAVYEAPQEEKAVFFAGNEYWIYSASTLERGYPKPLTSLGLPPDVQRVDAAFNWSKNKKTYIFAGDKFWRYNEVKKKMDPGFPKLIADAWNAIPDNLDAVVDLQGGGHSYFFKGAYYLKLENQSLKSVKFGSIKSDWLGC
Description: Binding affinity towards 72 kDa gelatinase (Matrix metalloprotease-2)

Row | Ki | Structure (SMILES)
1 | 3.5 nM | CC(C)C[C@H](CC(=O)NO)C(=O)N[C@@H](Cc1c[nH]c2ccccc12)C(=O)N1CCOCC1
2 | 42 nM | CNC(=O)[C@H](Cc1c[nH]c2ccccc12)NC(=O)[C@@H](CC(=O)NO)OC(C)C
3 | 43 nM | CCCCCO[C@H](CC(=O)NO)C(=O)N[C@@H](Cc1c[nH]c2ccccc12)C(=O)NC
4 | 0.64 nM | CC(C)C[C@H](CC(=O)NO)C(=O)N[C@@H](Cc1c[nH]c2ccccc12)C(=O)N[C@@H](C)c1ccccc1
5 | 0.7 nM | CNC(=O)[C@@H](Cc1ccc2ccccc2c1)NC(=O)[C@@H](CC(=O)NO)CC(C)C
6 | 8.1 nM | CC(C)C[C@H](CC(=O)NO)C(=O)N[C@H](Cc1ccc(-c2ccccc2)cc1)C(=O)NCCc1ccc(O)cc1
7 | 4.6 nM | CCCCCNC(=O)[C@H](Cc1c[nH]c2ccccc12)NC(=O)[C@@H](CC(=O)NO)CC(C)C
8 | 18 nM | CC(C)C[C@H](CC(=O)NO)C(=O)N[C@H](Cc1ccc2ccccc2c1)C(=O)NCc1ccccc1
9 | 0.92 nM | CC(C)C[C@H](CC(=O)NO)C(=O)N[C@@H](Cc1c[nH]c2ccccc12)C(=O)NCc1ccco1

Second part, the molecule before the results:

Row | Structure (SMILES) | Ki
10 | CC(C)C[C@H](CC(=O)NO)C(=O)N[C@H](Cc1ccc(-c2ccccc2)cc1)C(=O)N[C@@H](C)c1ccccc1 | 25 nM
11 | CC(C)C[C@H](CC(=O)NO)C(=O)N[C@@H](Cc1c[nH]c2ccccc12)C(=O)NCc1cccnc1 | 0.52 nM
12 | CC(C)C[C@H](CC(=O)NO)C(=O)N[C@H](Cc1cccc2ccccc12)C(=O)NCCCN1CCOCC1 | 0.59 nM
13 | CNC(=O)[C@@H](Cc1cccc2ccccc12)NC(=O)[C@@H](CC(=O)NO)CC(C)C | 0.42 nM
14 | CNC(=O)[C@@H](CC(C)C)NC(=O)[C@@H](CC(=O)NO)CC(C)C | 1.1 nM
15 | CC(C)C[C@H](CC(=O)NO)C(=O)N[C@@H](Cc1c[nH]c2ccccc12)C(=O)NCc1ccccn1 | 0.54 nM
16 | CNC(=O)[C@H](Cc1c[nH]c2ccccc12)N(C)C(=O)[C@@H](CC(=O)NO)CC(C)C | 17 nM
17 | CCCCCC[C@H](CC(=O)NO)C(=O)N[C@@H](Cc1c[nH]c2ccccc12)C(=O)NC | 0.21 nM
18 | CC(C)C[C@H](CC(=O)NO)C(=O)N[C@@H](Cc1c[nH]c2ccccc12)C(=O)NCc1nc2ccccc2[nH]1 | 7.3 nM
19 | CNC(=O)[C@@H](Cc1ccncc1)NC(=O)[C@@H](CC(=O)NO)CC(C)C | 0.96 nM
20 | CNC(=O)[C@@H](CC(C)C)NC(=O)C(CC(C)C)C(O)C(=O)NO (single isomer, unassigned) | 0.47 nM
21 | CNC(=O)[C@H](Cc1c[nH]c2ccccc12)NC(=O)C(CC(C)C)C(O)C(=O)NO (single isomer, unassigned) | 0.89 nM

molecular target: Neutrophil collagenase (Homo sapiens, UniProt P22894)
Sequence (P22894 whole entry): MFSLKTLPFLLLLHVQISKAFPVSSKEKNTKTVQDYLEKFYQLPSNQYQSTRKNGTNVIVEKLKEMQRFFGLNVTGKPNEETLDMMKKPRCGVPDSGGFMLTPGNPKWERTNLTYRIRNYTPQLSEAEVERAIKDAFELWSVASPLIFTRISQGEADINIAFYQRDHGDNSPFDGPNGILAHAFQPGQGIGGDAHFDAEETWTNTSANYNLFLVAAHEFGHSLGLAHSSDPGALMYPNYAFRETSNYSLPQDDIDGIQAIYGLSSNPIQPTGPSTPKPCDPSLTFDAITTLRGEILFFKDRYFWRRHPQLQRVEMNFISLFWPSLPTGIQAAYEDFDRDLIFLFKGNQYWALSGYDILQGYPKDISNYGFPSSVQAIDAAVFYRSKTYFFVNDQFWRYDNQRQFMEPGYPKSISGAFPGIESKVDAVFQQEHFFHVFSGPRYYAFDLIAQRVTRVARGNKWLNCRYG
Description: The compound was tested for its binding affinity towards neutrophil collagenase (Matrix metalloprotease-8)

Row | Ki | Structure (SMILES)
22 | 0.96 nM | CC(C)C[C@H](CC(=O)NO)C(=O)N[C@H](Cc1ccncc1)C(=O)NCc1ccccc1
23 | 0.63 nM | CC(C)C[C@H](CC(=O)NO)C(=O)N[C@H](Cc1cccnc1)C(=O)NCc1ccccc1
24 | 6.9 nM | CC(C)C[C@H](CC(=O)NO)C(=O)N[C@@H](Cc1c[nH]c2ccccc12)C(=O)N1CCOCC1
25 | 12 nM | CNC(=O)[C@H](Cc1c[nH]c2ccccc12)NC(=O)[C@@H](CC(=O)NO)OC(C)C
26 | 7.8 nM | CCCCCO[C@H](CC(=O)NO)C(=O)N[C@@H](Cc1c[nH]c2ccccc12)C(=O)NC
27 | 0.75 nM | CC(C)C[C@H](CC(=O)NO)C(=O)N[C@@H](Cc1c[nH]c2ccccc12)C(=O)N[C@@H](C)c1ccccc1
28 | 1.3 nM | CNC(=O)[C@@H](Cc1ccc2ccccc2c1)NC(=O)[C@@H](CC(=O)NO)CC(C)C
29 | 13 nM | CC(C)C[C@H](CC(=O)NO)C(=O)N[C@H](Cc1ccc(-c2ccccc2)cc1)C(=O)NCCc1ccc(O)cc1
30 | 6.5 nM | CCCCCNC(=O)[C@H](Cc1c[nH]c2ccccc12)NC(=O)[C@@H](CC(=O)NO)CC(C)C
31 | 3.6 nM | CC(C)C[C@H](CC(=O)NO)C(=O)N[C@H](Cc1ccc(-c2ccccc2)cc1)C(=O)NCc1ccccc1
32 | 0.56 nM | CC(C)C[C@H](CC(=O)NO)C(=O)N[C@@H](Cc1c[nH]c2ccccc12)C(=O)NCc1nccs1
33 | 7.7 nM | CC(C)C[C@H](CC(=O)NO)C(=O)N[C@H](Cc1ccc2ccccc2c1)C(=O)NCc1ccccc1
34 | 0.66 nM | CNC(=O)[C@H](Cc1cn(C)c2ccccc12)NC(=O)[C@@H](CC(=O)NO)CC(C)C
35 | 0.49 nM | CC(C)C[C@H](CC(=O)NO)C(=O)N[C@@H](Cc1c[nH]c2ccccc12)C(=O)NCc1ccco1
36 | 130 nM | CC(C)C[C@H](CC(=O)NO)C(=O)N[C@@H](Cc1c[nH]c2ccccc12)C(=O)NC1CCc2ccccc21 (single isomer, unassigned)

Second part, the molecule before the results:

Row | Structure (SMILES) | Ki
37 | CC(C)C[C@H](CC(=O)NO)C(=O)N[C@H](Cc1ccc(-c2ccccc2)cc1)C(=O)N[C@@H](C)c1ccccc1 | 13 nM
38 | CC(C)C[C@H](CC(=O)NO)C(=O)N[C@@H](Cc1c[nH]c2ccccc12)C(=O)NCc1cccnc1 | 0.11 nM
39 | CC(C)C[C@H](CC(=O)NO)C(=O)N[C@H](Cc1cccc2ccccc12)C(=O)NCCCN1CCOCC1 | 0.3 nM
40 | CNC(=O)[C@@H](Cc1cccc2ccccc12)NC(=O)[C@@H](CC(=O)NO)CC(C)C | 0.64 nM
41 | CNC(=O)[C@@H](CC(C)C)NC(=O)[C@@H](CC(=O)NO)CC(C)C | 0.65 nM
42 | CC(C)C[C@H](CC(=O)NO)C(=O)N[C@@H](Cc1c[nH]c2ccccc12)C(=O)NCc1ccccn1 | 0.43 nM
43 | CNC(=O)[C@H](Cc1c[nH]c2ccccc12)N(C)C(=O)[C@@H](CC(=O)NO)CC(C)C | 21 nM
44 | CCCCCC[C@H](CC(=O)NO)C(=O)N[C@@H](Cc1c[nH]c2ccccc12)C(=O)NC | 0.24 nM
45 | CC(C)C[C@H](CC(=O)NO)C(=O)N[C@@H](Cc1c[nH]c2ccccc12)C(=O)NCc1nc2ccccc2[nH]1 | 5.2 nM
46 | CNC(=O)[C@@H](Cc1ccncc1)NC(=O)[C@@H](CC(=O)NO)CC(C)C | 1.7 nM
47 | CC(C)C[C@H](CC(=O)NO)C(=O)N[C@@H](Cc1c[nH]c2ccccc12)C(=O)NCCNC(=O)OCc1ccccc1 | 0.94 nM
48 | CC(C)CC(CC(=O)NO)C(=O)N[C@@H](Cc1c[nH]c2ccccc12)C(=O)NC1CCc2ccccc21 (single isomer, unassigned) | 24 nM
49 | CNC(=O)[C@@H](CC(C)C)NC(=O)C(CC(C)C)C(O)C(=O)NO (single isomer, unassigned) | 0.53 nM
50 | CNC(=O)[C@H](Cc1c[nH]c2ccccc12)NC(=O)C(CC(C)C)C(O)C(=O)NO (single isomer, unassigned) | 0.41 nM

molecular target: Matrix metalloproteinase-9 (Homo sapiens, UniProt P14780)
Sequence (P14780 whole entry): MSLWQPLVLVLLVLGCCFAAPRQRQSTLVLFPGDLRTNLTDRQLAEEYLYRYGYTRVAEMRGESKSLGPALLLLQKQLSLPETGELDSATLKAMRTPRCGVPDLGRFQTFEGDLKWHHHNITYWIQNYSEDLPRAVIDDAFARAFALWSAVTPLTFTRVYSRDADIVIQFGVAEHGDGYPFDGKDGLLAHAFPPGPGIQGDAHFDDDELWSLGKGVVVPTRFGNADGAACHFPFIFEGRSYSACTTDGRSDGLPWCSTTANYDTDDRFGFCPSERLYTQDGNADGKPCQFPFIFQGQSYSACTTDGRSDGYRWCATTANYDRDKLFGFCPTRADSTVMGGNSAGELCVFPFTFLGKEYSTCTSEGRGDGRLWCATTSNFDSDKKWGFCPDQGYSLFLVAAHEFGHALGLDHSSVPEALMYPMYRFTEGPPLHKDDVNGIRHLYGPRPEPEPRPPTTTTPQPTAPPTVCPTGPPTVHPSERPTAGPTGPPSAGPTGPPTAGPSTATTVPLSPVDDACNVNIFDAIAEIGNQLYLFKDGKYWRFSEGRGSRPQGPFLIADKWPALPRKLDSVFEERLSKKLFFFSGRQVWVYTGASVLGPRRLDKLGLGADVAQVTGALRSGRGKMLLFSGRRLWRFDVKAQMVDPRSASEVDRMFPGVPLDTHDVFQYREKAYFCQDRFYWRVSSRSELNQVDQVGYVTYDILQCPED
Description: The compound was tested for its binding affinity towards 92 kDa gelatinase (Matrix metalloprotease-9)

Row | Ki | Structure (SMILES)
51 | 1.5 nM | CC(C)C[C@H](CC(=O)NO)C(=O)N[C@H](Cc1ccncc1)C(=O)NCc1ccccc1
52 | 2.7 nM | CC(C)C[C@H](CC(=O)NO)C(=O)N[C@H](Cc1cccnc1)C(=O)NCc1ccccc1
53 | 8.7 nM | CC(C)C[C@H](CC(=O)NO)C(=O)N[C@@H](Cc1c[nH]c2ccccc12)C(=O)N1CCOCC1
54 | 18 nM | CNC(=O)[C@H](Cc1c[nH]c2ccccc12)NC(=O)[C@@H](CC(=O)NO)OC(C)C
55 | 26 nM | CCCCCO[C@H](CC(=O)NO)C(=O)N[C@@H](Cc1c[nH]c2ccccc12)C(=O)NC
56 | 3.7 nM | CC(C)C[C@H](CC(=O)NO)C(=O)N[C@@H](Cc1c[nH]c2ccccc12)C(=O)N[C@@H](C)c1ccccc1
57 | 0.99 nM | CNC(=O)[C@@H](Cc1ccc2ccccc2c1)NC(=O)[C@@H](CC(=O)NO)CC(C)C
58 | 6.5 nM | CC(C)C[C@H](CC(=O)NO)C(=O)N[C@H](Cc1ccc(-c2ccccc2)cc1)C(=O)NCCc1ccc(O)cc1
59 | 7.1 nM | CCCCCNC(=O)[C@H](Cc1c[nH]c2ccccc12)NC(=O)[C@@H](CC(=O)NO)CC(C)C
60 | 3 nM | CC(C)C[C@H](CC(=O)NO)C(=O)N[C@H](Cc1ccc(-c2ccccc2)cc1)C(=O)NCc1ccccc1
61 | 0.9 nM | CC(C)C[C@H](CC(=O)NO)C(=O)N[C@@H](Cc1c[nH]c2ccccc12)C(=O)NCc1nccs1
62 | 5.3 nM | CC(C)C[C@H](CC(=O)NO)C(=O)N[C@H](Cc1ccc2ccccc2c1)C(=O)NCc1ccccc1
63 | 1.6 nM | CNC(=O)[C@H](Cc1cn(C)c2ccccc12)NC(=O)[C@@H](CC(=O)NO)CC(C)C
64 | 1.7 nM | CC(C)C[C@H](CC(=O)NO)C(=O)N[C@@H](Cc1c[nH]c2ccccc12)C(=O)NCc1ccco1
65 | 100 nM | CC(C)C[C@H](CC(=O)NO)C(=O)N[C@@H](Cc1c[nH]c2ccccc12)C(=O)NC1CCc2ccccc21 (single isomer, unassigned)

Further lines, the molecule ahead of its results:

Row | Structure (SMILES) | Ki
66 | CNC(=O)[C@@H](Cc1ccccc1)NC(=O)[C@@H](CC(=O)NO)CC(C)C | 0.96 nM
67 | CC(C)C[C@H](CC(=O)NO)C(=O)N[C@H](Cc1ccc(-c2ccccc2)cc1)C(=O)N[C@@H](C)c1ccccc1 | 6.3 nM
68 | CC(C)C[C@H](CC(=O)NO)C(=O)N[C@@H](Cc1c[nH]c2ccccc12)C(=O)NCc1cccnc1 | 0.78 nM
69 | CC(C)C[C@H](CC(=O)NO)C(=O)N[C@H](Cc1cccc2ccccc12)C(=O)NCCCN1CCOCC1 | 0.58 nM
70 | CNC(=O)[C@@H](Cc1cccc2ccccc12)NC(=O)[C@@H](CC(=O)NO)CC(C)C | 1.3 nM
71 | CNC(=O)[C@@H](CC(C)C)NC(=O)[C@@H](CC(=O)NO)CC(C)C | 2.5 nM
72 | CC(C)C[C@H](CC(=O)NO)C(=O)N[C@@H](Cc1c[nH]c2ccccc12)C(=O)NCc1ccccn1 | 0.68 nM
73 | CNC(=O)[C@H](Cc1c[nH]c2ccccc12)N(C)C(=O)[C@@H](CC(=O)NO)CC(C)C | 42 nM
74 | CCCCCC[C@H](CC(=O)NO)C(=O)N[C@@H](Cc1c[nH]c2ccccc12)C(=O)NC | 0.41 nM
75 | CC(C)C[C@H](CC(=O)NO)C(=O)N[C@@H](Cc1c[nH]c2ccccc12)C(=O)NCc1nc2ccccc2[nH]1 | 3 nM
76 | CNC(=O)[C@@H](Cc1ccncc1)NC(=O)[C@@H](CC(=O)NO)CC(C)C | 2.8 nM
77 | CC(C)C[C@H](CC(=O)NO)C(=O)N[C@@H](Cc1c[nH]c2ccccc12)C(=O)NCCNC(=O)OCc1ccccc1 | 1.1 nM
78 | CC(C)CC(CC(=O)NO)C(=O)N[C@@H](Cc1c[nH]c2ccccc12)C(=O)NC1CCc2ccccc21 (single isomer, unassigned) | 30 nM
79 | CNC(=O)[C@@H](CC(C)C)NC(=O)C(CC(C)C)C(O)C(=O)NO (single isomer, unassigned) | 2.3 nM
80 | CNC(=O)[C@H](Cc1c[nH]c2ccccc12)NC(=O)C(CC(C)C)C(O)C(=O)NO (single isomer, unassigned) | 1.7 nM
